Source: patent US11633416B1, “Oral formulations of CD73 compounds” (ARCUS BIOSCIENCES, INC., priority 2020, dated 2023)
Read-outs that look alike come from different tables or passages of the source.

Assay: Oral exposure in cynomolgus monkeys, compound alone or with excipient in capsules; plasma by LC-MS/MS
Type: in vivo
Conditions: enteric capsule; for MRT inf: read-out: MRT0-∞
From the text: The influence of different excipients on the bioavailability of Compound (Ia), Compound 2 and Compound 3 in cynomolgus monkeys was investigated. The excipients tested were sodium phytate, sodium citrate, sodium EDTA, cyclodextrin, sodium taurocholate, sodium polystyrene sulfate, sodium caprate, sodium phosphate, carbomer 971P and palmitoyl carnitine chloride. Generally, an appropriate quantity (as indicated in Table 1) of Compound (Ia), Compound 2 or Compound 3 and an excipient were mixed to homogeneity and transferred to capsules for dosing. In one example, Compound (Ia) (500 mg assay, 1.063 correction factor applied for to account for purity) and 2.75 g of sodium phytate (Sigma) were combined in a mortar and pestle. The mixture was ground to homogeneity then 530 mg of the white powder was transferred to enteric capsules (Size 0) prior to dosing.
[…] Compound (Ia), Compound 2 or Compound 3, either alone, or with excipient, in an enteric capsule was administered via an oral pet piller. Blood samples were collected from a peripheral vessel at designated time points, and centrifuged to obtain plasma.
Plasma samples obtained at each time point from the subjects were prepared by protein precipitation. An aliquot of 50 μL sample was added with 150 μL acetonitrile containing an internal standard ([[[(2R,3S,4R,5R)-5-[6-chloro-4-[[(1S)-2,2,2-trideuterio-1-(2-fluorophenyl)ethyl]amino]pyrazolo[3,4-b]pyridin-1-yl]-3,4-dihydroxyoxolan-2-yl]-dideuteriomethoxy]-hydroxyphosphoryl]methylphosphonic acid, 200 ng/mL in Acetonitrile). The mixture was vortexed for 15 min and then centrifuged at 4500 rpm for 15 min at 4° C. (Sorvall Legend XTR centrifuge, Thermo Scientific, Langenselbold, Germany). 80 μL of the resulting supernatant was transferred into a new plate and mixed with 160 μL water followed by LC-MS/MS analysis.
• API 4000 mass spectrometer (Applied Biosystems, Foster City, Calif.) • Shimadzu Nexera X^2 UHPLC System (Shimadzu Scientific Instruments, Canby, Oreg.) Column: SHISEIDO CAPCELL PAK INERT ADME S3 (2.00 mm×50 mm, Part No. 79001) Mobile Phase A: 8.6 mM Triethylamine, 100 mM HFIP (1,1,1,3,3,3-Hexafluoro-2-propanol) in Water Mobile Phase B: 8.6 mM Triethylamine, and 100 mM HFIP in [Acetonitrile:water (95:5, v/v) Needle wash (weak & strong): Acetone:MeCN:Water (80:20:20, v/v/v) Flow Rate: 0.50 mL/min HPLC Gradient:
• Ionization Mode: Electrospray (ESI) • Detection Mode: Negative MRM (Q1/Q3 transitions: m/z 579.0/157.0 for Compound (Ia) or Compound 3; m/z 584.0/157.0 for Internal Standard); (Q1/Q3 transitions m/z 562.2/157.0 for Compound 2; m/z 584.0/157.0 for Internal Standard)

[1] = male, cynomolgus monkey, plasma, po, 50 mg, Table 2: oral, dose 50 mg, + 275 mg sodium phytate
[2] = male, cynomolgus monkey, plasma, po, 50 mg, Table 2: oral, dose 50 mg, neat
[3] = oral, dose 50 mg, with 275 mg sodium phytate (Sigma-Aldrich, ≥5 mol sodium/mol), fasted

Exposure Enhancement (Table 2: oral, dose 50 mg, + 275 mg sodium phytate versus neat): 9.1-fold
AUC(0-inf) (male, cynomolgus monkey, plasma, po, 10 mg, with 195 mg sodium citrate, 6 mg SDS, fasted): 1940 ng·h/mL
Cmax (male, cynomolgus monkey, plasma, po, 10 mg, oral, dose 10 mg, with 195 mg sodium citrate, 6 mg SDS, fasted, read-out: Cmax): 286 ng/mL
AUC(0-inf) [1]: 122000 ng·h/mL
AUC(0-t) [1]: 88000 ng·h/mL
Tmax [1]: 3 h
Cmax (male, cynomolgus monkey, plasma, po, 50 mg, Table 2: oral, dose 50 mg, + 275 mg sodium phytate, read-out: Cmax): 3680 ng/mL
MRT inf [1]: 35.8 h
AUC(0-inf) [2]: 13400 ng·h/mL
AUC(0-t) [2]: 10300 ng·h/mL
Tmax [2]: 1.75 h
Cmax (male, cynomolgus monkey, plasma, po, 50 mg, Table 2: oral, dose 50 mg, neat, read-out: Cmax): 631 ng/mL
MRT inf [2]: 29.2 h
AUC(0-inf) (male, cynomolgus monkey, plasma, po, 50 mg, neat, fasted): 13400 ng·h/mL
AUC(0-inf) (male, cynomolgus monkey, plasma, po, 50 mg, with 25 mg sodium taurocholate, fasted): 9300 ng·h/mL
AUC(0-inf) (male, cynomolgus monkey, plasma, po, 50 mg, with 50 mg sodium phytate (Sigma-Aldrich), fasted): 59700 ng·h/mL
AUC(0-inf) (male, cynomolgus monkey, plasma, po, 50 mg, with 100 mg Na-EDTA, fasted): 154000 ng·h/mL
AUC(0-inf) (male, cynomolgus monkey, plasma, po, 50 mg, with 100 mg cyclodextrin, fasted): 8230 ng·h/mL
AUC(0-inf) (male, cynomolgus monkey, plasma, po, 50 mg, with 100 mg palmitoyl carnitine chloride, fasted): 43400 ng·h/mL
AUC(0-inf) (male, cynomolgus monkey, plasma, po, 50 mg, with 195 mg sodium citrate, 3 mg SDS, fasted): 22200 ng·h/mL
AUC(0-inf) (male, cynomolgus monkey, plasma, po, 50 mg, with 195 mg sodium citrate, 6 mg SDS, non-fasted animal): 16500 ng·h/mL
AUC(0-inf) (male, cynomolgus monkey, plasma, po, 50 mg, with 195 mg sodium citrate, 6 mg sodium dodecyl sulfate (SDS), fasted): 38300 ng·h/mL
AUC(0-inf) (male, cynomolgus monkey, plasma, po, 50 mg, with 227.5 mg sodium caprate, fasted): 20300 ng·h/mL
AUC(0-inf) (male, cynomolgus monkey, plasma, po, 50 mg, with 275 mg sodium phytate (Sigma-Aldrich, ≥5 mol sodium/mol), fasted): 109000 ng·h/mL
AUC(0-inf) (male, cynomolgus monkey, plasma, po, 50 mg, with 275 mg sodium phytate, dodecasodium, fasted): 69400 ng·h/mL
AUC(0-inf) (male, cynomolgus monkey, plasma, po, 50 mg, with 275 mg sodium phytate, hexasodium, fasted): 152000 ng·h/mL
AUC(0-inf) (male, cynomolgus monkey, plasma, po, 50 mg, with 325 mg sodium polystyrene sulfate, fasted): 41400 ng·h/mL
AUC(0-inf) (male, cynomolgus monkey, plasma, po, 50 mg, with 400 mg sodium phosphate, fasted): 20500 ng·h/mL
AUC(0-inf) (male, cynomolgus monkey, plasma, po, 50 mg, with 7% w/w carbomer 971P, fasted): 41300 ng·h/mL
Cmax (male, cynomolgus monkey, plasma, po, 50 mg, oral, dose 50 mg, neat, fasted, read-out: Cmax): 631 ng/mL
Cmax (male, cynomolgus monkey, plasma, po, 50 mg, oral, dose 50 mg, with 25 mg sodium taurocholate, fasted, read-out: Cmax): 455 ng/mL
Cmax (male, cynomolgus monkey, plasma, po, 50 mg, oral, dose 50 mg, with 50 mg sodium phytate (Sigma-Aldrich), fasted, read-out: Cmax): 1650 ng/mL
Cmax (male, cynomolgus monkey, plasma, po, 50 mg, oral, dose 50 mg, with 100 mg Na-EDTA, fasted, read-out: Cmax): 6840 ng/mL
Cmax (male, cynomolgus monkey, plasma, po, 50 mg, oral, dose 50 mg, with 100 mg cyclodextrin, fasted, read-out: Cmax): 526 ng/mL
Cmax (male, cynomolgus monkey, plasma, po, 50 mg, oral, dose 50 mg, with 100 mg palmitoyl carnitine chloride, fasted, read-out: Cmax): 3660 ng/mL
Cmax (male, cynomolgus monkey, plasma, po, 50 mg, oral, dose 50 mg, with 195 mg sodium citrate, 3 mg SDS, fasted, read-out: Cmax): 922 ng/mL
Cmax (male, cynomolgus monkey, plasma, po, 50 mg, oral, dose 50 mg, with 195 mg sodium citrate, 6 mg SDS, non-fasted animal, read-out: Cmax): 863 ng/mL
Cmax (male, cynomolgus monkey, plasma, po, 50 mg, oral, dose 50 mg, with 195 mg sodium citrate, 6 mg sodium dodecyl sulfate (SDS), fasted, read-out: Cmax): 1520 ng/mL
Cmax (male, cynomolgus monkey, plasma, po, 50 mg, oral, dose 50 mg, with 227.5 mg sodium caprate, fasted, read-out: Cmax): 912 ng/mL
Cmax (male, cynomolgus monkey, plasma, po, 50 mg, oral, dose 50 mg, with 275 mg sodium phytate (Sigma-Aldrich, ≥5 mol sodium/mol), fasted, read-out: Cmax): 3570 ng/mL
Cmax (male, cynomolgus monkey, plasma, po, 50 mg, oral, dose 50 mg, with 275 mg sodium phytate, dodecasodium, fasted, read-out: Cmax): 2970 ng/mL
Cmax (male, cynomolgus monkey, plasma, po, 50 mg, oral, dose 50 mg, with 275 mg sodium phytate, hexasodium, fasted, read-out: Cmax): 4440 ng/mL
Cmax (male, cynomolgus monkey, plasma, po, 50 mg, oral, dose 50 mg, with 325 mg sodium polystyrene sulfate, fasted, read-out: Cmax): 1420 ng/mL
Cmax (male, cynomolgus monkey, plasma, po, 50 mg, oral, dose 50 mg, with 400 mg sodium phosphate, fasted, read-out: Cmax): 700 ng/mL
Cmax (male, cynomolgus monkey, plasma, po, 50 mg, oral, dose 50 mg, with 7% w/w carbomer 971P, fasted, read-out: Cmax): 1480 ng/mL
AUC(0-inf) (male, cynomolgus monkey, plasma, po, 100 mg, with 275 mg sodium phytate (Sigma-Aldrich), fasted): 237000 ng·h/mL
Cmax (male, cynomolgus monkey, plasma, po, 100 mg, oral, dose 100 mg, with 275 mg sodium phytate (Sigma-Aldrich), fasted, read-out: Cmax): 5760 ng/mL
Exposure Enhancement (oral, dose 50 mg, with 50 mg sodium phytate (Sigma-Aldrich), relative to 50 mg Ia ( 3Na) without absorption enhancer): 4.5-fold^b
Exposure Enhancement (oral, dose 50 mg, with 100 mg Na-EDTA, relative to 50 mg Ia ( 3Na) without absorption enhancer): 11.5-fold^b
Exposure Enhancement (oral, dose 50 mg, with 100 mg palmitoyl carnitine chloride, relative to 50 mg Ia ( 3Na) without absorption enhancer): 3.2-fold^b
Exposure Enhancement (oral, dose 50 mg, with 195 mg sodium citrate, 3 mg SDS, relative to 50 mg Ia ( 3Na) neat): 1.7-fold
Exposure Enhancement (oral, dose 50 mg, with 195 mg sodium citrate, 6 mg SDS, non-fasted animal, relative to 50 mg Ia ( 3Na) without absorption enhancer): 1.2-fold^b
Exposure Enhancement (oral, dose 50 mg, with 195 mg sodium citrate, 6 mg SDS, relative to 50 mg Ia ( 3Na) without absorption enhancer): 2.9-fold^b
Exposure Enhancement (oral, dose 50 mg, with 227.5 mg sodium caprate, relative to 50 mg Ia ( 3Na) without absorption enhancer): 1.5-fold^b
Exposure Enhancement (oral, dose 50 mg, with 275 mg sodium phytate (Sigma-Aldrich), relative to 50 mg Ia ( 3Na) without absorption enhancer): 9.1-fold^b
Exposure Enhancement (oral, dose 50 mg, with 275 mg sodium phytate (Sigma-Aldrich), relative to 50 mg Ia ( 3Na) without absorption enhancer, listed as Ia ( 3Na)): 8.1-fold^b
AUC0-∞ [3]: 122,000 h*ng/mL
Cmax [3]: 3,680 ng/mL
Exposure Enhancement (oral, dose 50 mg, with 275 mg sodium phytate, dodecasodium, relative to 50 mg Ia ( 3Na) without absorption enhancer): 5.2-fold^b
Exposure Enhancement (oral, dose 50 mg, with 275 mg sodium phytate, hexasodium, relative to 50 mg Ia ( 3Na) without absorption enhancer): 11.4-fold^b
Exposure Enhancement (oral, dose 50 mg, with 325 mg sodium polystyrene sulfate, relative to 50 mg Ia ( 3Na) without absorption enhancer): 3.1-fold^b
Exposure Enhancement (oral, dose 50 mg, with 400 mg sodium phosphate, relative to 50 mg Ia ( 3Na) without absorption enhancer): 1.9-fold^b
Exposure Enhancement (oral, dose 50 mg, with 7% w/w carbomer 971P, relative to 50 mg Ia ( 3Na) without absorption enhancer): 3.1-fold^b
SMILES: C[C@H](Nc1cc(Cl)nc2c1cnn2[C@@H]1O[C@H](COP(=O)(O)CP(=O)(O)O)[C@@H](O)[C@H]1O)c1ccccc1F [Ia (•3Na), (((((2R,3S,4R,5R)-5-(6-chloro-4-(((S)-1-(2-fluorophenyl)ethyl)amino)-1H-pyrazolo[3,4-b]pyridin-1-yl)-3,4-dihydroxytetrahydrofuran-2-yl)methoxy)(hydroxy)phosphoryl)methyl)phosphonic acid]
